From ChEMBL document CHEMBL2331430, “Absolute configuration and conformational analysis of brevipolides, bioactive 5,6-dihydro-α-pyrones from Hyptis brevipes” (J Nat Prod, 2013)
Values after ≈ are worked out from the molar mass of the structure shown.

How the values were obtained:
PC-3 = assay: Cytotoxicity against human PC3 cells after 72 hrs by SRB assay; settings: PC-3, 72 h, read-out: ED50 (the source's name)
HCT-15 = assay: Cytotoxicity against human HCT15 cells after 72 hrs by SRB assay; settings: HCT-15, 72 h, read-out: ED50 (the source's name)
[1] = test system: Hep-2 (human laryngeal carcinoma); assay: Cytotoxicity against human Hep-2 cells after 72 hrs by SRB assay; settings: Hep-2, 72 h, read-out: ED50 (the source's name)
KB = assay: Cytotoxicity against human KB cells after 72 hrs by SRB assay
HeLa = assay: Cytotoxicity against human HeLa cells after 72 hrs by SRB assay; settings: read-out: ED50 (the source's name)
MCF7 = assay: Cytotoxicity against human MCF7 cells after 72 hrs by SRB assay; settings: MCF7, 72 h, read-out: ED50 (the source's name)

Structure (SMILES)	EC50 (PC-3)	EC50 (HCT-15)	EC50 [1]	IC50 (KB)	EC50 (HeLa)	EC50 (MCF7)
C[C@H](OC(=O)/C=C/c1ccc(O)cc1)C(=O)[C@H]1C[C@@H]1[C@H](O)[C@H]1CC=CC(=O)O1 [BREVIPOLIDE G]	0.3 µg/mL (≈ 0.776 µM)	0.3 µg/mL (≈ 0.776 µM)	0.3 µg/mL (≈ 0.776 µM)	0.3 µg/mL (≈ 0.776 µM)	0.3 µg/mL (≈ 0.776 µM)	0.3 µg/mL (≈ 0.776 µM)
COc1ccc(/C=C/C(=O)O[C@@H](C)C(=O)[C@H]2C[C@@H]2[C@H](O)[C@H]2CC=CC(=O)O2)cc1 [BREVIPOLIDE H]	0.3 µg/mL (≈ 0.749 µM)	0.3 µg/mL (≈ 0.749 µM)	0.3 µg/mL (≈ 0.749 µM)	2 µg/mL (≈ 4.99 µM)	0.3 µg/mL (≈ 0.749 µM)	0.3 µg/mL (≈ 0.749 µM)
COc1ccc(/C=C\C(=O)O[C@@H](C)C(=O)[C@H]2C[C@@H]2[C@H](O)[C@H]2CC=CC(=O)O2)cc1 [BREVIPOLIDE I]	0.3 µg/mL (≈ 0.749 µM)	0.3 µg/mL (≈ 0.749 µM)	0.3 µg/mL (≈ 0.749 µM)	1.9 µg/mL (≈ 4.74 µM)	0.3 µg/mL (≈ 0.749 µM)	0.3 µg/mL (≈ 0.749 µM)
COc1ccc(/C=C/C(=O)O[C@@H](C)C(=O)[C@H]2C[C@@H]2[C@H](O)[C@H]2CC=CC(=O)O2)cc1O [BREVIPOLIDE J]	0.3 µg/mL (≈ 0.72 µM)	0.3 µg/mL (≈ 0.72 µM)	0.3 µg/mL (≈ 0.72 µM)	1.2 µg/mL (≈ 2.88 µM)	0.3 µg/mL (≈ 0.72 µM)	0.3 µg/mL (≈ 0.72 µM)
